What was measured:
[1] = 101.33 kPa, Liquid; for speed of sound: Sing-around technique in a fixed-path interferometer; for mass density: Vibrating tube method; for viscosity: Falling or rolling sphere viscometry
[2] = molar heat capacity at constant pressure; conditions: 101.33 kPa, Liquid, DSC

CCCCn1cc[n+](C(CC)CC)c1.O=S(=O)([N-]S(=O)(=O)C(F)(F)F)C(F)(F)F
Conditions	mass density, [1] [kg/m3]	molar heat capacity at constant pressure, [2] [J/K/mol]	speed of sound, [1] [m/s]	viscosity, [1] [mPa·s]
287.15 K	1329.4	–	1238.8	–
289.15 K	1327.6	–	1233.8	–
291.15 K	1325.8	–	1228.9	–
293.15 K	1324	–	1224.1	159.5
294.15 K	–	692.9	–	148.8
295.15 K	1322.2	694.28	1219.3	–
296.15 K	–	695.14	–	–
297.15 K	1320.4	695.85	1214.5	–
298.15 K	–	696.61	–	118.2
299.15 K	1318.6	697.52	1209.8	–
300.15 K	–	698.18	–	–
301.15 K	1316.8	698.85	1205.1	–
302.15 K	–	699.65	–	–
303.15 K	1315	700.37	1200.4	89.55
304.15 K	–	701.22	–	–
305.15 K	1313.2	701.89	1195.8	–
306.15 K	–	702.56	–	–
307.15 K	1311.5	703.46	1191.2	–
308.15 K	–	704.22	–	–
309.15 K	1309.7	704.93	1186.7	–
310.15 K	–	705.84	–	–
311.15 K	1307.9	706.6	1182.1	–
312.15 K	–	707.21	–	–
313.15 K	1306.2	707.88	1177.6	54.83
314.15 K	–	708.69	–	–
315.15 K	1304.4	709.45	1173.1	–
316.15 K	–	710.35	–	–
317.15 K	1302.6	711.16	1168.6	–
318.15 K	–	711.87	–	–
319.15 K	1300.9	712.97	1164.2	–
320.15 K	–	713.78	–	–
321.15 K	1299.1	714.58	1159.8	–
322.15 K	–	715.35	–	–
323.15 K	1297.4	716.3	1155.4	35.98
324.15 K	–	717.1	–	–
325.15 K	1295.7	718.2	1151	–
326.15 K	–	718.67	–	–
327.15 K	1293.9	719.58	1146.6	–
328.15 K	–	720.2	–	–
329.15 K	1292.2	721.15	1142.3	–
330.15 K	–	721.72	–	–
331.15 K	1290.5	722.48	1137.9	–
332.15 K	–	723.24	–	–
333.15 K	1288.7	723.9	1133.6	25.07
334.15 K	–	724.81	–	–
335.15 K	1287	725.43	1129.3	–
336.15 K	–	726.23	–	–
337.15 K	1285.3	726.9	1125	–
338.15 K	–	727.47	–	–
339.15 K	1283.6	728.09	1120.8	–
340.15 K	–	729.04	–	–
341.15 K	1281.8	729.42	1116.6	–
342.15 K	–	730.13	–	–
343.15 K	1280.1	731.13	1112.4	18.26
344.15 K	–	731.94	–	–
345.15 K	–	732.61	–	–
346.15 K	–	733.37	–	–
347.15 K	–	733.89	–	–
348.15 K	–	734.79	–	–
353.15 K	–	–	–	13.84

From the NIST ThermoML archive (doi:10.1016/j.fluid.2017.03.021)
